Results reported in patent publication US20220298138A1, “ENZYME INHIBITORS” (KALVISTA PHARMACEUTICALS LIMITED, priority 2019, published 2022).

Target: T1, Human Factor XIIa (Homo sapiens, UniProt P00748)
T1 construct: purchased Enzyme Research Laboratories
T1 sequence (P00748 373-615 limits assumed): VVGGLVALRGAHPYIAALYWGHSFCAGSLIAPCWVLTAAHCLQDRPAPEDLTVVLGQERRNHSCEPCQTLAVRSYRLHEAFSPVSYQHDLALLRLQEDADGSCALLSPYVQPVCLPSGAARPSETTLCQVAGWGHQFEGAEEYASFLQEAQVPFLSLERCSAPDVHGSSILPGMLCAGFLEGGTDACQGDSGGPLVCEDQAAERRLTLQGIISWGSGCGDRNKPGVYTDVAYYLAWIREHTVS
Test: Factor XIIa inhibitory activity in vitro (fluorogenic substrate H-DPro-Phe-Arg-AFC)
Type: biochemical
Conditions: 25° C., class symbols, read-out: Human FXIIa IC50
Method: Determination of the % Inhibition for FXIIa
Human Factor XIIa (Enzyme Research Laboratories) was incubated at 25° C. with the fluorogenic substrate H-DPro-Phe-Arg-AFC and various concentrations of the test compound. Residual enzyme activity (initial rate of reaction) was determined by measuring the change in […] at 410 nm and the IC50 value for the test compound was determined.

Row | SMILES | IC50 [µM]
1 | Nc1nccc2cc(CNC(=O)[C@H](Cc3ccc(F)c(F)c3)NC(=O)c3cc4ccccc4[nH]3)ccc12 [Example 0.85] | 10 to 40
2 | Nc1nccc2cc(CNC(=O)CNC(=O)[C@H](N)CCc3ccccc3)ccc12 [Example 6.02] | 0.28 to 1
3 | CCOC(=O)c1cn(-c2ccc(OC)c(F)c2CNC(=O)[C@H](C)NC(=O)[C@@H](CCc2ccccc2)NC(C)C)nn1 [Example 9.19] | 10 to 40
4 | Nc1nccc2cc(CNC(=O)[C@H](Cc3ccc(F)c(F)c3)NC(=O)c3cccnc3)ccc12 [Example 0.23] | 10 to 40
5 | N#Cc1cccc(C(=O)N[C@@H](Cc2ccc(F)c(F)c2)C(=O)NCc2ccc3c(N)nccc3c2)c1 [Example 0.25] | 3 to 10
6 | N#Cc1cccc(CC(=O)N[C@@H](Cc2ccc(F)c(F)c2)C(=O)NCc2ccc3c(N)nccc3c2)c1 [Example 3.25] | 10 to 40
7 | N#Cc1ccc(C(=O)N[C@@H](Cc2ccc(F)c(F)c2)C(=O)NCc2ccc3c(N)nccc3c2)nc1 [Example 0.11] | 10 to 40
8 | CC1CCCC(C)N1CC(=O)N[C@@H](Cc1cccc2ccccc12)C(=O)NCc1ccc2c(N)nccc2c1 (some centres unmarked) [Example 3.02] | 0.1 to 0.279
9 | CC(C)N(CC(=O)N[C@@H](Cc1ccc(F)c(F)c1)C(=O)NCc1ccc2c(N)nccc2c1)C(C)C [Example 3.09] | 0.28 to 1
10 | Nc1nccc2cc(CNC(=O)[C@H](Cc3ccc(F)c(F)c3)NC(=O)c3cccnn3)ccc12 [Example 0.15] | 3 to 10
11 | CCCn1ncc(C(=O)N[C@@H](Cc2ccc(F)c(F)c2)C(=O)NCc2ccc3c(N)nccc3c2)c1C [Example 0.70] | 10 to 40
12 | Nc1nccc2cc(CNC(=O)[C@H](Cc3ccc(F)c(F)c3)NC(=O)CCn3cnc4ccccc43)ccc12 [Example 20.05] | 10 to 40
13 | CC(O)[C@H](NC(=O)CN1[C@H](C)CCC[C@@H]1C)C(=O)NCc1ccc2c(N)nccc2c1 (stereo partly drawn) [Example 39.06, (2S)—N-[(1-Aminoisoquinolin-6-yl)methyl]-2-{2-[(2R,6S)-2,6-dimethylpiperidin-1-yl]acetamido}-3-hydroxybutanamide] | 10 to 40
14 | CC(C(=O)N[C@@H](Cc1ccc(F)c(F)c1)C(=O)NCc1ccc2c(N)nccc2c1)N1CCCC1 (some centres unmarked) [Example 5.103] | 1 to 3
15 | C[C@@H]1CCC[C@H](C)N1CC(=O)N[C@@H](Cc1ccc(F)c(F)c1)C(=O)NCc1ccc2[nH]cnc2c1 [Example 3.103] | 10 to 40
16 | Nc1nccc2cc(CNC(=O)[C@H](Cc3ccc(F)c(F)c3)NC(=O)c3cscn3)ccc12 [Example 0.33] | 3 to 10
17 | Cc1cccnc1C(=O)N[C@@H](Cc1ccc(F)c(F)c1)C(=O)NCc1ccc2c(N)nccc2c1 [Example 0.50] | 3 to 10
18 | Cn1cc(C(=O)N[C@@H](Cc2ccc(F)c(F)c2)C(=O)NCc2ccc3c(N)nccc3c2)cn1 [Example 0.03] | 10 to 40
19 | Nc1nccc2cc(CNC(=O)[C@H](Cc3ccc(F)c(F)c3)NC(=O)CN3CCCCC3)ccc12 [Example 3.06] | 1 to 3

Row | SMILES | IC50 [µM]
20 | Nc1nccc2cc(CNC(=O)CNC(=O)[C@@H](CCc3ccccc3)NS(=O)(=O)Cc3ccccc3)ccc12 [Example 18.102] | 1 to 3
21 | CCOCCC(=O)N[C@@H](Cc1ccc(F)c(F)c1)C(=O)NCc1ccc2c(N)nccc2c1 [Example 20.04] | 10 to 40
22 | CCCCOCC(=O)N[C@@H](Cc1ccc(F)c(F)c1)C(=O)NCc1ccc2c(N)nccc2c1 [Example 3.30] | 10 to 40
23 | CC(C)N[C@H](CCCCN1CCOCC1)C(=O)N1CC[C@H]1C(=O)NCc1ccc2[nH]cc(Cl)c2c1 [Example 10.20] | 0.28 to 1
24 | CS(=O)(=O)c1cccc(C(=O)N[C@@H](Cc2ccc(F)c(F)c2)C(=O)NCc2ccc3c(N)nccc3c2)c1 [Example 0.47] | 3 to 10
25 | Nc1nccc2cc(CNC(=O)[C@H](Cc3ccc(F)c(F)c3)NC(=O)c3cccc(-n4ccnc4)c3)ccc12 [Example 0.09] | 3 to 10
26 | CCC(C)[C@@H](N)C(=O)N[C@@H](Cc1cccc2ccccc12)C(=O)NCc1ccc2c(N)nccc2c1 (some centres unmarked) [Example 18.101] | 1 to 3
27 | Nc1nccc2cc(CNC(=O)[C@H](Cc3ccc(F)c(F)c3)NC(=O)c3ncccn3)ccc12 [Example 0.18] | 10 to 40
28 | Nc1nccc2cc(CNC(=O)[C@H](Cc3ccc(F)c(F)c3)NC(=O)C(F)F)ccc12 [Example 0.66] | 3 to 10
29 | CC(C)c1cc(C(=O)N[C@@H](Cc2ccc(F)c(F)c2)C(=O)NCc2ccc3c(N)nccc3c2)[nH]n1 [Example 0.54] | 3 to 10
30 | COc1ncccc1C(=O)N[C@@H](Cc1ccc(F)c(F)c1)C(=O)NCc1ccc2c(N)nccc2c1 [Example 0.42] | 10 to 40
31 | C[C@@H]1CCC[C@H](C)N1CC(=O)N1CCC[C@@H](C(=O)NCc2ccc3c(N)nccc3c2)C1 [Example 32.08] | 1 to 3
32 | CCCS(=O)(=O)N[C@@H](Cc1ccc(F)c(F)c1)C(=O)NCc1ccc2c(N)nccc2c1 [Example 55.01] | 10 to 40
33 | Cc1ccnn1CCC(=O)N[C@@H](Cc1ccc(F)c(F)c1)C(=O)NCc1ccc2c(N)nccc2c1 [Example 20.03] | 10 to 40
34 | C[C@H](NC(=O)CN1[C@H](C)CCC[C@@H]1C)C(=O)NCc1ccc2c(N)nccc2c1 [Example 39.02] | 3 to 10
35 | CC(C)N1CCC[C@@H]1C(=O)N[C@@H](Cc1ccc(F)c(F)c1)C(=O)NCc1ccc2c(N)nccc2c1 [Example 44.01] | 0.28 to 1
36 | CC(C)N(C)CC(=O)N[C@@H](Cc1ccc(F)c(F)c1)C(=O)NCc1ccc2c(N)nccc2c1 [Example 3.08] | 0.28 to 1
37 | Cc1nccn1CCC(=O)N[C@@H](Cc1ccc(F)c(F)c1)C(=O)NCc1ccc2c(N)nccc2c1 [Example 3.31] | 3 to 10

Continued, values first:

Row | IC50 [µM] | SMILES
38 | 10 to 40 | C[C@@H]1CCC[C@H](C)N1CC(=O)N1CC[C@@H](C(=O)NCc2ccc3c(N)nccc3c2)C1 [Example 32.07]
39 | 10 to 40 | Cc1nc2ccccc2n1CCC(=O)N[C@@H](Cc1ccc(F)c(F)c1)C(=O)NCc1ccc2c(N)nccc2c1 [Example 20.06]
40 | 10 to 40 | Nc1nccc2cc(CNC(=O)[C@H](Cc3ccc(F)c(F)c3)NC(=O)COCc3ccccc3)ccc12 [Example 0.39]
41 | 10 to 40 | CC(C)(C)OC(=O)N[C@H](CCc1ccccc1)C(=O)NCC(=O)NCc1ccc2c(N)nccc2c1 [Example 6.01]
42 | 3 to 10 | CCC(C)[C@H](C(=O)N[C@@H](Cc1ccc(F)c(F)c1)C(=O)NCc1ccc2c(N)nccc2c1)N(C)C (some centres unmarked) [Example 5.101]
43 | 10 to 40 | Nc1nccc2cc(CNC(=O)C[C@@H](N)Cc3ccccc3)ccc12 [Example 24.03]
44 | 0.28 to 1 | CC(C)c1cc(C(=O)N[C@@H](Cc2ccc(F)c(F)c2)C(=O)NCc2ccc3c(N)nccc3c2)ncn1 [Example 0.87]
45 | 10 to 40 | CC(C)n1cc(C(=O)N[C@@H](Cc2ccc(F)c(F)c2)C(=O)NCc2ccc3c(N)nccc3c2)cn1 [Example 0.07]
46 | 10 to 40 | CC(C)N1CCC[C@@H]1C(=O)N[C@@H](Cc1ccc(F)c(F)c1)C(=O)NCc1cnc2[nH]ccc2c1 [Example 44.04]
47 | 10 to 40 | Nc1nccc2cc(CNC(=O)[C@H](Cc3ccc(F)c(F)c3)NC(=O)c3ccc(-c4cncnc4)cc3)ccc12 [Example 0.27]
48 | 3 to 10 | CC(C)N[C@H](CCc1ccccc1)C(=O)N[C@@H](C)C(=O)NCc1ccc(CN)cc1 [Example 9.10]
49 | 10 to 40 | Nc1nccc2cc(CNC(=O)[C@H](Cc3ccc(F)c(F)c3)NC(=O)c3c[nH]nc3C3CC3)ccc12 [Example 0.61]
50 | 10 to 40 | COc1ccc(CNC(=O)[C@H](Cc2ccc(F)c(F)c2)NC(=O)CN2[C@H](C)CCC[C@@H]2C)cc1Cl [Example 34.01]
51 | 10 to 40 | Nc1nccc2cc(CNC(=O)[C@H](Cc3ccc(F)c(F)c3)NC(=O)c3ccc4ncccc4n3)ccc12 [Example 0.31]
52 | 10 to 40 | Nc1nccc2cc(CNC(=O)[C@H](Cc3ccc(F)c(F)c3)NC(=O)c3ccc4ncsc4c3)ccc12 [Example 0.40]
53 | 10 to 40 | CC(C)(O)CC(=O)N[C@@H](Cc1ccc(F)c(F)c1)C(=O)NCc1ccc2c(N)nccc2c1 [Example 3.28]
54 | 0.1 to 0.279 | C[C@@H]1CCC[C@H](C)N1CC(=O)N[C@@H](Cc1c[nH]c2ccccc12)C(=O)NCc1ccc2c(N)nccc2c1 [Example 3.21]
55 | 10 to 40 | CC(C)c1ncncc1C(=O)N[C@@H](Cc1ccc(F)c(F)c1)C(=O)NCc1ccc2c(N)nccc2c1 [Example 0.89]
56 | 10 to 40 | Nc1nccc2cc(CNC(=O)[C@H](Cc3ccc(F)c(F)c3)NC(=O)c3nccc4ccccc34)ccc12 [Example 0.80]
57 | 10 to 40 | Nc1nccc2cc(CNC(=O)[C@H](Cc3ccc(F)c(F)c3)NC(=O)c3cccs3)ccc12 [Example 0.82]
58 | 3 to 10 | CNS(=O)(=O)c1cccc(C(=O)N[C@@H](Cc2ccc(F)c(F)c2)C(=O)NCc2ccc3c(N)nccc3c2)c1 [Example 0.60]
59 | 1 to 3 | Nc1nccc2cc(CNC(=O)[C@@H]3CCCCN3C(=O)[C@H](N)CCc3ccccc3)ccc12 [Example 17.03]
60 | 10 to 40 | Cc1nn(C)c(C)c1CCC(=O)N[C@@H](Cc1ccc(F)c(F)c1)C(=O)NCc1ccc2c(N)nccc2c1 [Example 20.08]
61 | 0.28 to 1 | CC1(C)CCCN1CC(=O)N[C@@H](Cc1ccc(F)c(F)c1)C(=O)NCc1ccc2c(N)nccc2c1 [Example 3.18]
62 | 3 to 10 | CC(C)c1ncc(C(=O)N[C@@H](Cc2ccc(F)c(F)c2)C(=O)NCc2ccc3c(N)nccc3c2)cn1 [Example 0.92]
63 | 10 to 40 | Nc1nccc2cc(CNC(=O)[C@H](Cc3ccc(F)c(F)c3)NC(=O)C[C@@H]3CCCO3)ccc12 [Example 3.35]
64 | 0.28 to 1 | CC(C)N[C@H](CCc1ccccc1)C(=O)NCC(=O)NCc1ccc2c(N)nccc2c1 [Example 6.07]
65 | 1 to 3 | Nc1nccc2cc(CNC(=O)[C@H](Cc3ccc(F)c(F)c3)NC(=O)c3cnc4n(c3=O)CCS4)ccc12 [Example 0.37]
